Source: patent publication US6780871B2, “Methods and compositions for treating addiction disorders” (Albany Medical College, priority 2001, dated 2004)

How the values were obtained:
[1] = system: morphine self-administration; test: intravenous morphine self-administration; format: in vivo, rat; conditions: Example 6, FIG. 8: mecamylamine 1 mg/kg i.p., 18-methoxycoronaridine 1 mg/kg i.p., dextromethorphan 5 mg/kg s.c., bupropion 5 mg/kg i.p.; 5-8 rats
Procedure: Dextromethorphan hydrobromide (5 mg/kg; Sigma/RBI, St. Louis, Mo.) was dissolved in saline and injected subcutaneously 20 minutes before testing. Mecamylamine hydrochloride (1 mg/kg; Sigma/RBI, St. Louis, Mo.) was dissolved in physiological saline and injected intraperitoneally 30 minutes before testing. All rats received two injections. For rats that received a single drug, half of them also received the appropriate saline/vehicle injection corresponding to each of the other two drugs.
Naive female Long-Evans derived rats (250 g; Charles River, N.Y.) were maintained on a normal 12 h light cycle (lights on at 7:00 a.m., lights off at 7:00 p.m.). For all experiments the “Principles of Laboratory Animal Care” (NIH publication No. 85-23, revised 1985, which is hereby incorporated by reference) were followed.
The intravenous self-administration procedure described in Glick et al., “18-MC Reduces Methamphetamine and Nicotine Self-administration in Rats,” NeuroReport 11:2013-2015 (2000) (“Glick I”), which is hereby incorporated by reference, was employed. Briefly, responses on either of two levers (mounted 15 cm apart on the front wall of each operant test cage) were recorded on an IBM compatible computer with a Med Associates, Inc. interface. The intravenous self-administration system consisted of polyethylene-silicone cannulas constructed according to the design of Weeks, “Long-term Intravenous Infusion,” pp. 155-168 in Myers (ed.), Methods in Psychobiology, Vol. 2, New York: Academic Press (1972) (“Weeks”), which is hereby incorporated by reference; Instech harnesses and swivels; and Harvard Apparatus infusion pumps (#55-2222). Shaping of the bar-press response was initially accomplished by training rats to bar-press for water. Cannulas were then implanted in the external jugular vein according to procedures described in Weeks, which is hereby incorporated by reference. Self-administration testing began with a 16-h nocturnal session followed by daily 1-h sessions, 5 days (Monday-Friday) a week. A lever-press response produced a 10 μl infusion of drug solution (0.01 mg of morphine sulfate) in about 0.2 s or a 50 μl infusion of drug solution (0.025 mg of methamphetamine sulfate) in about 1 s. Since all rats generally weighed 250±20 g, each response delivered approximately 0.04 mg/kg of morphine or 0.1 mg/kg of methamphetamine. Experiments to assess the effects of experimental treatments were begun when baseline self-administration rates stabilized (≦10% variation from one day to the next across 5 days), usually after 2 weeks of testing.
Each data point represents the mean (±S.E.M.) percent of baseline of 6-8 rats. Significant differences between baseline and treatment are indicated by an asterisk (paired t-test, P<0.01-0.001).
Each data point represents the mean (±S.E.M.) percent of baseline of 5-8 rats. Significant differences between baseline and treatment are indicated by an asterisk (paired t-test), P<0.05-0.01).

[2] = system: nicotine self-administration; test: nicotine self-administration; format: in vivo, rat; conditions: Example 7, FIGS. 11-12: mecamylamine 0.1 mg/kg i.p., 18-methoxycoronaridine 0.5 mg/kg i.p., dextromethorphan 0.5 mg/kg s.c., bupropion 5 mg/kg i.p.; 5-8 rats
[3] = system: methamphetamine self-administration; test: intravenous methamphetamine self-administration; format: in vivo, rat; conditions: Example 6, FIG. 9: mecamylamine 1 mg/kg i.p., 18-methoxycoronaridine 5 mg/kg i.p., dextromethorphan 10 mg/kg s.c., bupropion 10 mg/kg i.p.; 5-9 rats
[4] = molecular target: T1, NR1/2B receptors (Rattus norvegicus, UniProt P35439+Q00960); test: whole-cell patch-clamp of transfected HEK293 cells, NR1/2B, 100 μM glutamate plus 10 μM glycine; format: cell-based
T1 construct: expressed in transfected cells; host or cells: HEK293 (ATCC CRL1573), transient transfection
T1 sequence (Q00960 27-1482, other chains not shown): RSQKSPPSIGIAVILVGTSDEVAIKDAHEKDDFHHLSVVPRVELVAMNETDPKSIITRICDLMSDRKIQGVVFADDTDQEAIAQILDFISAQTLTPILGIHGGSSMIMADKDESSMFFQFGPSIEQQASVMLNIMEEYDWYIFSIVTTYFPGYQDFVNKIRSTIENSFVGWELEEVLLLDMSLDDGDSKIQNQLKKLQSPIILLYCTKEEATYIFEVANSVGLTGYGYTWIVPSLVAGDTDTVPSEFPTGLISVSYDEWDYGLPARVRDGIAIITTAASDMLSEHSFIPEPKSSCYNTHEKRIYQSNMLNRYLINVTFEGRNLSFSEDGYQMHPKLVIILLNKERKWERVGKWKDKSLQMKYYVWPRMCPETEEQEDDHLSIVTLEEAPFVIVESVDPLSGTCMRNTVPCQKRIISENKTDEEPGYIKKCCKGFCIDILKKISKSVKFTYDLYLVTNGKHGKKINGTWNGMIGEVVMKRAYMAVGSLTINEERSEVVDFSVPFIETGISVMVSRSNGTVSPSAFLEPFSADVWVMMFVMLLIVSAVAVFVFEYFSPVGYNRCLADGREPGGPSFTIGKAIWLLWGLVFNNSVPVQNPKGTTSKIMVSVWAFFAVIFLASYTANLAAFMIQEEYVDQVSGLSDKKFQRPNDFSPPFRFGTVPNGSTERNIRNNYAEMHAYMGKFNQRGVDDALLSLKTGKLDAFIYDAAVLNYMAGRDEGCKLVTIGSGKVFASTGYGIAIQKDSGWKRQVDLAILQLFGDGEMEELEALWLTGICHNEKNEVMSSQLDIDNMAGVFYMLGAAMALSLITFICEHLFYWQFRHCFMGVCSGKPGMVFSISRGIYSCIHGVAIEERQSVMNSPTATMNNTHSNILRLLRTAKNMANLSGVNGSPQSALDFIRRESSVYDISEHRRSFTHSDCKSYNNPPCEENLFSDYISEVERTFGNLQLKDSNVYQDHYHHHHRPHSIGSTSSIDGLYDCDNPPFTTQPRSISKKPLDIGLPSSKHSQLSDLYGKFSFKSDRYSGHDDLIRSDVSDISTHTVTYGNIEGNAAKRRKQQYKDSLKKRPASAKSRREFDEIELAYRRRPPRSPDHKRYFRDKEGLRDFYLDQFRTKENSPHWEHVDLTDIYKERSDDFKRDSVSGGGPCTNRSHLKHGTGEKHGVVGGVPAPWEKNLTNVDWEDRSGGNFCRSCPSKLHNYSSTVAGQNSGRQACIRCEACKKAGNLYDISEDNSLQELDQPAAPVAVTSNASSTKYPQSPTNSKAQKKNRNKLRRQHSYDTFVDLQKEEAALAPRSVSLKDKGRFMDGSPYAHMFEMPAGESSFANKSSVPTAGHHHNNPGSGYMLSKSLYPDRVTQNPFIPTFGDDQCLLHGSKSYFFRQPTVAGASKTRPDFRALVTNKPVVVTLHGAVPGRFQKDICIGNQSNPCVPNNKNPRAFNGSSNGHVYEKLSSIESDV
Procedure: (§1) Human embryonic kidney 293 (HEK293) fibroblasts (ATCC CRL1573) were cultured in minimal essential medium supplemented with 10% fetal bovine serum and 2 mM glutamine (Life Technologies, Rockville, Md.). Cells were plated on poly-D-lysine-coated 35 mm nunc dishes, transfected by the LipofectaminePLUS method (Life Technologies), and examined functionally between 18-48 h post transfection. The following receptor subunit cDNAs were used: nAChR-α3 (nicotinic acetylcholine receptor-α3; accession no. L31621), nAChR-α4 (accession no. L31620), nAChR-β2 (accession no. L31622), nAChR-β4 (accession no. U42976), 5-HT3R-A (5-HT3A receptor; accession no. M74425), NR1 (N-methyl-D-aspartate receptor 1; accession no. X63255), NR2A (accession no. X91561), and NR2B (accession no. M91562). The nAchR and NR clones were rat; the 5-HT3R-A clone was mouse. Co-transfection of enhanced green fluorescent protein (“EGFP”) (10% of total cDNA) provided a marker to identify transfected cells. Transfected cells were selected for EGFP expression and examined by voltage-clamp recording in the whole-cell configuration using an Axopatch 200B patch-clamp amplifier (Axon Instruments, Foster City, Calif.). Thin-walled borosilicate glass microelectrodes (TW150F, World Precision Instruments, Sarasota, Fla.) had resistances of 3-5 MΩ when filled with an internal solution containing (in mM): 135 CsCl, 10 CsF, 10 HEPES (N-[2-hydroxyethyl]piperazine-N′-[2-ethanesulfonic acid]), 5 EGTA (ethylene glycol-bis[β-aminoethyl ether]-N,N,N′,N′-tetraacetic acid), 1 MgCl2, 0.5 CaCl2, pH 7.2. Whole-cell capacitance and series resistance were recorded and adequately compensated using the available circuitry of the amplifier. Current responses were filtered at 1 kHz with an 8-pole Bessel filter (Cygnus Technologies, Delaware Water Gap, Pa.), digitized at 3 kHz, and stored on a Macintosh PowerPC-G3 computer using an ITC-16 interface (Instrutech, Great Neck, N.Y.) under control of the data acquisition and analysis program Synapse (Synergy Research, Gaithersburg, Md.). Cells were continuously superfused with extracellular solution containing (in mM): 150 NaCl, 3 KCl, 5 HEPES, 1 MgCl2, 1.8 CaCl2, 10 glucose, and 0.1 mg/ml phenol red, pH 7.3 (MgCl2 was omitted from all solutions used for the study of NMDA receptors). […] Control, agonist, and drug solutions were applied to individual cells by rapid perfusion. Solutions were driven by a syringe pump through a flowpipe having 4 inputs that converge at a single common output of approximately 100 μm diameter. Rapid switching between inputs was achieved using a set of upstream solenoid valves (Lee Co., Westbrook, Conn.) under computer control; the solution exchange rate was ˜5 ms as measured from liquid junction currents.
(§2) To study these, transfected HEK293 cells expressing NR1/2A or NR1/2B receptors were voltage-clamped to −70 mV and stimulated with 100 μM glutamate plus 10 μM glycine at 30 s intervals. […] In FIGS. 3A and 3B, open bars depict the timing of agonist application, filled bars depict the timing of co-application of 20 μM IBO or 20 μM 18MC, and inhibition was measured relative to control at the end of the drug application (indicated by arrows).

[5] = molecular target: T2, 5-HT3A receptors (Mus musculus, UniProt P23979); test: whole-cell patch-clamp of transfected HEK293 cells, 5-HT3A, 100 μM serotonin; format: cell-based
T2 construct: expressed in transfected cells; host or cells: HEK293 (ATCC CRL1573), transient transfection
T2 sequence (P23979 24-489): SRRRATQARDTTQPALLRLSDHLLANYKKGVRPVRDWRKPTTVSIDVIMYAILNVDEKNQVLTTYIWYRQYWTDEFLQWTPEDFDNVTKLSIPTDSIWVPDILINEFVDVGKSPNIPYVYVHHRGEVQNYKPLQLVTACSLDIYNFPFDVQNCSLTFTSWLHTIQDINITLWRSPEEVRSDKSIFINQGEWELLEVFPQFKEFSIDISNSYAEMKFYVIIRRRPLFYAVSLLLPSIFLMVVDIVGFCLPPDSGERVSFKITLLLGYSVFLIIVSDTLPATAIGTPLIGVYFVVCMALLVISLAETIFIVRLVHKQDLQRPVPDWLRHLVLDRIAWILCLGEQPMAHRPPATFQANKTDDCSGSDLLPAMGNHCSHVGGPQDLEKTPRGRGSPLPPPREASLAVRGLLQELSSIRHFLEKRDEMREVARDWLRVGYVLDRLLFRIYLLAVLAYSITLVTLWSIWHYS
Procedure: as §1
as §2, with “Transfected” for “To study these, transfected”, “5-HT3A” for “NR1/2A or NR1/2B”, “serotonin” for “glutamate plus 10 μM glycine”, “This is shown in FIG. 4, where” for “In FIGS. 3A and 3B,”

[6] = molecular target: NMDA-type glutamate receptors; conditions: literature (Popik, Chen); read-out: IC50 obtained in hippocampal neurons; cited from earlier work
[7] = molecular target: T3, NR1/2A receptors (Rattus norvegicus, UniProt P35439+Q00959); test: whole-cell patch-clamp of transfected HEK293 cells, NR1/2A, 100 μM glutamate plus 10 μM glycine; format: cell-based
T3 construct: expressed in transfected cells; host or cells: HEK293 (ATCC CRL1573), transient transfection
T3 sequence (Q00959 20-1464 limits assumed, other chains not shown): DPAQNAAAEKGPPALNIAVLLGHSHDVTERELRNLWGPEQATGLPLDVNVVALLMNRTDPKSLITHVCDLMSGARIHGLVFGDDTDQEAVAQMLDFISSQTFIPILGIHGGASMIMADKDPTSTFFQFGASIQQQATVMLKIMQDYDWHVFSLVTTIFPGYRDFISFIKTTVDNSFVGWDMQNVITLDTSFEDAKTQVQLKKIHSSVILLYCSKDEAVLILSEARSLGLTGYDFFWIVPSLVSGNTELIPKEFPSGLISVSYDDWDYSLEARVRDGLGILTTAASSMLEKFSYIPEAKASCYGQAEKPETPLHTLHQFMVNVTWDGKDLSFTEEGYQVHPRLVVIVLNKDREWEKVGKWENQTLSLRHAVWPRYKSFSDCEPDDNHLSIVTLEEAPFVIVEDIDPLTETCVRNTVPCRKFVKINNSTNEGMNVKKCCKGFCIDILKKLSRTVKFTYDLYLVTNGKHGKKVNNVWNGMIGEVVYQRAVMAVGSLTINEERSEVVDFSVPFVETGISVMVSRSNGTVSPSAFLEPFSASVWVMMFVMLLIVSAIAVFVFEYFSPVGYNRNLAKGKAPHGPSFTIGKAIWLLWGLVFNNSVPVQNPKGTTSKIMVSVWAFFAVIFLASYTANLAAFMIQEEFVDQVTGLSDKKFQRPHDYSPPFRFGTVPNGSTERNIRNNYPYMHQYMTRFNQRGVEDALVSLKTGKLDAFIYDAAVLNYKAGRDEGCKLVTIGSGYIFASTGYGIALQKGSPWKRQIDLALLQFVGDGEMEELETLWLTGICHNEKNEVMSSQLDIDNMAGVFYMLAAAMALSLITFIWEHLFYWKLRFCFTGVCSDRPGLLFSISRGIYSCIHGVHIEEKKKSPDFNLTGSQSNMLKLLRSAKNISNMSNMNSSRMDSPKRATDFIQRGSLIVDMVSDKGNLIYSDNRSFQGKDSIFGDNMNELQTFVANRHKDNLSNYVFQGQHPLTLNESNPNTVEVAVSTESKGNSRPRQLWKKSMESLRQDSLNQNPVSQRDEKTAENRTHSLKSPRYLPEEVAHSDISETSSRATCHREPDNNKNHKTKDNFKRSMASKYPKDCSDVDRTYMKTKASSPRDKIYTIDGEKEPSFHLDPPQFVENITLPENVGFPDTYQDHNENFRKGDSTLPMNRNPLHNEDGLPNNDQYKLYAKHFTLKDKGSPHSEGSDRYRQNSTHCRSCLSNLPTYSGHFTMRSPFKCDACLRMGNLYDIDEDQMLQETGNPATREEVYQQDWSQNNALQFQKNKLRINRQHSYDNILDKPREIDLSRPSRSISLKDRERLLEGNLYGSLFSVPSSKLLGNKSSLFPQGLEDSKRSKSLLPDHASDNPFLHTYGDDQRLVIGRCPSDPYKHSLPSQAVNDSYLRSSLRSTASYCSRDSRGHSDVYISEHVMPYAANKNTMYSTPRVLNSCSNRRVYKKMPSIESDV
Procedure: as §1, §2

[8] = molecular target: T4, α3β4 nACh receptors (Rattus norvegicus, UniProt P09483+P12390); test: whole-cell patch-clamp of transfected HEK293 cells, neuronal nACh receptors, 300 μM ACh; format: cell-based
T4 construct: expressed in transfected cells; host or cells: HEK293 (ATCC CRL1573), transient transfection
T4 sequence (P09483 31-630): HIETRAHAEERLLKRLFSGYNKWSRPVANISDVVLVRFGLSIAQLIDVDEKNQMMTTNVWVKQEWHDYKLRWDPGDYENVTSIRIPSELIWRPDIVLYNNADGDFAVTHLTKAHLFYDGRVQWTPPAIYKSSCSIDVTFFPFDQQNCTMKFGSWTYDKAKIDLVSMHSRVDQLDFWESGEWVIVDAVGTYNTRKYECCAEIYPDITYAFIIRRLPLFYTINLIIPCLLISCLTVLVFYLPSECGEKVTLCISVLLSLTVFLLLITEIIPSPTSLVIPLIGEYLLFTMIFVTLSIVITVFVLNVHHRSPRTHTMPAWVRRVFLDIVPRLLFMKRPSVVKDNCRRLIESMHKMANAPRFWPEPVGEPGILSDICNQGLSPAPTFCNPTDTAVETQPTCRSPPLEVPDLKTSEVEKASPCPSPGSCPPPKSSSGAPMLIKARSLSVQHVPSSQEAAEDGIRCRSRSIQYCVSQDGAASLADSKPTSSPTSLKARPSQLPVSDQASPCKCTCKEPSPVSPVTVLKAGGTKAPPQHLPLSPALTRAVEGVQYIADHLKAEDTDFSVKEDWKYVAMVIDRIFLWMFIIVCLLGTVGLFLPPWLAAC
T4 sequence (P12390 25-500): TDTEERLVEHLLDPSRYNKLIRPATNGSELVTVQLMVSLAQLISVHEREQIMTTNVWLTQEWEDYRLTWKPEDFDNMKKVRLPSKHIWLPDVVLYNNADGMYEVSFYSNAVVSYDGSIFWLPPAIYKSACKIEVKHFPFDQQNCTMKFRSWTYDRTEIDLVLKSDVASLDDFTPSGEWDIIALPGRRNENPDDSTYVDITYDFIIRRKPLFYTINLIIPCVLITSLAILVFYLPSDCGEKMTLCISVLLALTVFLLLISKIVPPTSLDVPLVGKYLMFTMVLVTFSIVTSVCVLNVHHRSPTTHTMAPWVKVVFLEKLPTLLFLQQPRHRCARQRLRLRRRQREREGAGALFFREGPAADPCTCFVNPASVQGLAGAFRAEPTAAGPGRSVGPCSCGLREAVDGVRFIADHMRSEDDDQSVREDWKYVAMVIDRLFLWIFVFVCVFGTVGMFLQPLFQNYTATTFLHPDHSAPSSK
Procedure: as §1
Transfected HEK293 cells expressing various receptor subunit cDNAs were examined by whole-cell patch-clamp recording with fast perfusion of agonist and drug solutions. […] Transfected HEK293 cells expressing α3β4 nACh receptors were voltage-clamped to −70 mV and stimulated with 1 mM ACh at 30 s intervals. […] In FIG. 1A, open bars depict the timing of ACh application; filled bars depict the timing of co-application of 20 μM IBO or 20 μM 18MC; and inhibition was measured relative to control at the end of the drug application (indicated by arrows). […] The data presented in FIG. 1B are mean±SEM for 3-14 cells per point, and curve fits are given for the logistic equation: I=Imax/(1+([drug]/IC50)). […] In this case, transfected HEK293 cells expressing α3β4 nACh receptors were voltage-clamped to −70 mV and stimulated with 300 μM ACh at 30 s intervals.

[9] = molecular target: T5, α3β4 nACh receptors (Rattus norvegicus, UniProt P04757+P12392); test: whole-cell patch-clamp of transfected HEK293 cells, ganglionic α3β4 nACh receptors, 1 mM ACh; format: cell-based
T5 construct: expressed in transfected cells; host or cells: HEK293 (ATCC CRL1573), transient transfection
T5 sequence (P04757 26-499): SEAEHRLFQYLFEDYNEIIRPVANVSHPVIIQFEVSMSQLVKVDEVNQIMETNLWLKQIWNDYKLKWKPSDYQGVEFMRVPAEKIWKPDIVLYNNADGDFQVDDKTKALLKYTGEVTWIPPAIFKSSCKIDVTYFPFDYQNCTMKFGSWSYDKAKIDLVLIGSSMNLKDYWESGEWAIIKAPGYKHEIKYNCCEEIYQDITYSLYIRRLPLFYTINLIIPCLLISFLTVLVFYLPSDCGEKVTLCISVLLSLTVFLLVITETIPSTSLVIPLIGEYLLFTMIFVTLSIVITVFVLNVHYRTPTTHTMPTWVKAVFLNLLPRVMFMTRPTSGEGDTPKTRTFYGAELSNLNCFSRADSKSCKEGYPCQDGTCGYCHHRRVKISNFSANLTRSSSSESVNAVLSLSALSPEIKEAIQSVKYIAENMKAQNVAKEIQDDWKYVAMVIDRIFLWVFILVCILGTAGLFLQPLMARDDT
T5 sequence (P12392 21-495): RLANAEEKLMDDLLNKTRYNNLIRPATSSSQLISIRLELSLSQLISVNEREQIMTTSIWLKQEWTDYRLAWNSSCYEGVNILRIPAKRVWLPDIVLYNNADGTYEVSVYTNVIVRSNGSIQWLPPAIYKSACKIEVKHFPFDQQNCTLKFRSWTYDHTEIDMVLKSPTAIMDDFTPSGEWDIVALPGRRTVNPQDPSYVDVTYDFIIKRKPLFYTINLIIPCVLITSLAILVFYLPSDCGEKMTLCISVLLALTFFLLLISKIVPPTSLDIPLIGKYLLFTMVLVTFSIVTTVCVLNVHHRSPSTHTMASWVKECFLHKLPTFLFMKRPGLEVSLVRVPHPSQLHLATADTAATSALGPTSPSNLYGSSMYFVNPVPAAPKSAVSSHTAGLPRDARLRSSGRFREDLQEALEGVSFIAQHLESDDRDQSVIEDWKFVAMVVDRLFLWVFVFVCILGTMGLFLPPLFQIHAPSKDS
Procedure: Human embryonic kidney 293 (HEK293) fibroblasts (ATCC CRL1573) were cultured in minimal essential medium supplemented with 10% fetal bovine serum and 2 mM glutamine (Life Technologies, Rockville, Md.). Cells were plated on poly-D-lysine-coated 35 mm nunc dishes, transfected by the LipofectaminePLUS method (Life Technologies), and examined functionally between 18-48 h post transfection. The following receptor subunit cDNAs were used: nAChR-α3 (nicotinic acetylcholine receptor-α3; accession no. L31621), nAChR-α4 (accession no. L31620), nAChR-β2 (accession no. L31622), nAChR-β4 (accession no. U42976), 5-HT3R-A (5-HT3A receptor; accession no. M74425), NR1 (N-methyl-D-aspartate receptor 1; accession no. X63255), NR2A (accession no. X91561), and NR2B (accession no. M91562). The nAchR and NR clones were rat; the 5-HT3R-A clone was mouse. Co-transfection of enhanced green fluorescent protein (“EGFP”) (10% of total cDNA) provided a marker to identify transfected cells. Transfected cells were selected for EGFP expression and examined by voltage-clamp recording in the whole-cell configuration using an Axopatch 200B patch-clamp amplifier (Axon Instruments, Foster City, Calif.). Thin-walled borosilicate glass microelectrodes (TW150F, World Precision Instruments, Sarasota, Fla.) had resistances of 3-5 MΩ when filled with an internal solution containing (in mM): 135 CsCl, 10 CsF, 10 HEPES (N-[2-hydroxyethyl]piperazine-N′-[2-ethanesulfonic acid]), 5 EGTA (ethylene glycol-bis[β-aminoethyl ether]-N,N,N′,N′-tetraacetic acid), 1 MgCl2, 0.5 CaCl2, pH 7.2. Whole-cell capacitance and series resistance were recorded and adequately compensated using the available circuitry of the amplifier. Current responses were filtered at 1 kHz with an 8-pole Bessel filter (Cygnus Technologies, Delaware Water Gap, Pa.), digitized at 3 kHz, and stored on a Macintosh PowerPC-G3 computer using an ITC-16 interface (Instrutech, Great Neck, N.Y.) under control of the data acquisition and analysis program Synapse (Synergy Research, Gaithersburg, Md.). […] Rapid switching between inputs was achieved using a set of upstream solenoid valves (Lee Co., Westbrook, Conn.) under computer control; the solution exchange rate was ˜5 ms as measured from liquid junction currents.
Transfected HEK293 cells expressing various receptor subunit cDNAs were examined by whole-cell patch-clamp recording with fast perfusion of agonist and drug solutions. […] In FIG. 1A, open bars depict the timing of ACh application; filled bars depict the timing of co-application of 20 μM IBO or 20 μM 18MC; and inhibition was measured relative to control at the end of the drug application (indicated by arrows). […]

In the case of `CC(NC(C)(C)C)C(=O)c1cccc(Cl)c1` (stereo not drawn) [bupropion, m-chloro-α-tert-butylaminopropiophenone], the “effect on morphine self-administration (percent of baseline)” value [1] is reported as “none of the drugs administered alone, significantly decreased”, the “effect on nicotine self-administration (percent of baseline)” value [2] is reported as “none of the drugs administered alone, significantly decreased” and the “effect on methamphetamine self-administration (percent of baseline)” value [3] is reported as “none of the drugs administered alone, significantly decreased”.
In the case of ibogaine, the “inhibition of agonist-evoked response” value ([4]; 10 μM drug, co-application) is reported as 82±3%, the “response to drug applied alone (agonist activity)” value (from here on “response to drug applied alone”) ([4]; 20 μM drug alone) is reported as “did not produce any response” and the “reduction of agonist-evoked response” value ([4]; 20 μM drug, co-application) is reported as 95±2%. The “response to drug applied alone” value ([5]; 20 μM drug alone) was “did not produce any response”, the “inhibition of serotonin-evoked responses” value ([5]; 20 μM drug with 100 μM serotonin, FIG. 4) was 53±3% and the IC50 [6] was 3 to 5 µM. The “inhibition of agonist-evoked response” value ([7]; 10 μM drug, co-application) was 51±9%, the “response to drug applied alone” value ([7]; 20 μM drug alone) was “did not produce any response” and the “reduction of agonist-evoked response” value ([7]; 20 μM drug, co-application) was 98±3%. For the same molecule, the “inhibition of ACh-evoked response” value ([8]; 5 μM drug with 300 μM ACh) was 61±4%, the “response to drug applied alone” value ([8]; 20 μM drug alone, -70 mV) was “did not produce any response” and the “inhibition of ACh-evoked response” value ([8]; 20 μM drug with 300 μM ACh, FIG. 2) was 93±3%. The “response to drug applied alone” value ([9]; 20 μM drug alone, -70 mV) was “did not produce any response” and the “inhibition of ACh-evoked responses on co-application” value ([9]; 20 μM drug with 1 mM ACh, N=15, FIG. 1A) was “nearly abolished”.
